In ChEMBL document CHEMBL1201862, “PubChem BioAssay data set” (2004):
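Results reflect a 48-hour exposure of cells in 96-well plates to compound at five concentrations. Here, GI50 denotes the concentration required for 50% inhibition of growth.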 Calls of active or inactive are those of the source. No stated cut-off is given here; in the data, active = GI50 up to about 1.1 µM and inactive = higher.

How the values were obtained:
Assay in all cases: growth of human tumour cells (NCI), 48 h
SW-620 = test system: SW-620
Malme-3M = test system: Malme-3M
CAKI-1 = test system: CAKI-1
HOP-62 = test system: HOP-62
SF-268 = test system: SF-268
PC-3 = test system: PC-3
SN12C = test system: SN12C
HCC 2998 = test system: HCC 2998
SK-MEL-28 = test system: SK-MEL-28
U-251 = test system: U-251
MOLT-4 = test system: MOLT-4
UO-31 = test system: UO-31
HL-60 = test system: HL-60
SR = test system: SR
NCI/ADR-RES = test system: NCI/ADR-RES
MDA-N = test system: MDA-N
DU-145 = test system: DU-145
COLO 205 = test system: COLO 205
Hs-578T = test system: Hs-578T
ACHN = test system: ACHN
786-0 = test system: 786-0
SF-539 = test system: SF-539
OVCAR-5 = test system: OVCAR-5
HCT-15 = test system: HCT-15
OVCAR-8 = test system: OVCAR-8
A549 = test system: A549
M14 = test system: M14
NCI-H23 = test system: NCI-H23
NCI-H522 = test system: NCI-H522
CCRF-CEM = test system: CCRF-CEM
MDA-MB-435 = test system: MDA-MB-435
RPMI-8226 = test system: RPMI-8226
BT-549 = test system: BT-549
UACC-257 = test system: UACC-257
EKVX = test system: EKVX
IGROV-1 = test system: IGROV-1
HCT-116 = test system: HCT-116
MCF7 = test system: MCF7
K562 = test system: K562
KM12 = test system: KM12
MDA-MB-231 = test system: MDA-MB-231
OVCAR-3 = test system: OVCAR-3
SK-MEL-5 = test system: SK-MEL-5
NCI-H226 = test system: NCI-H226
SNB-19 = test system: SNB-19
HOP-92 = test system: HOP-92
RXF 393 = test system: RXF 393
A498 = test system: A498
TK-10 = test system: TK-10
OVCAR-4 = test system: OVCAR-4
NCI-H460 = test system: NCI-H460
HT-29 = test system: HT-29
SNB-75 = test system: SNB-75
LOX IMVI = test system: LOX IMVI
SK-MEL-2 = test system: SK-MEL-2
SF-295 = test system: SF-295
T47D = test system: T47D
UACC-62 = test system: UACC-62
SK-OV-3 = test system: SK-OV-3

Measured: GI50

COCCNC1CCC2(SCCS2)c2[nH]c3ccccc3c21 (centres undefined)
69.8 µM: HCT-15
inactive: SW-620 68.7 µM | Malme-3M > 10 µM | CAKI-1 39.1 µM | HOP-62 86.7 µM | SF-268 > 100 µM | PC-3 28.6 µM | SN12C 28.4 µM | HCC 2998 67.6 µM | SK-MEL-28 26.3 µM | U-251 37.2 µM | MOLT-4 29.2 µM | UO-31 > 10 µM | HL-60 18.9 µM | SR 23.1 µM | NCI/ADR-RES 37.5 µM | MDA-N 22.9 µM | DU-145 39.3 µM | COLO 205 22.2 µM | Hs-578T 57.9 µM | ACHN 61.9 µM | 786-0 31.8 µM | SF-539 23.6 µM | OVCAR-5 > 100 µM | OVCAR-8 46.1 µM | A549 > 100 µM | M14 16 µM | NCI-H23 > 100 µM | NCI-H522 30.8 µM | CCRF-CEM 35.2 µM | MDA-MB-435 22.4 µM | RPMI-8226 15 µM | BT-549 20.6 µM | UACC-257 18 µM | EKVX > 100 µM | IGROV-1 > 100 µM | HCT-116 50.1 µM | MCF7 16.8 µM | K562 32.2 µM | KM12 17.8 µM | MDA-MB-231 20.3 µM | OVCAR-3 27.2 µM | SK-MEL-5 25.1 µM | NCI-H226 40.3 µM | SNB-19 > 100 µM | HOP-92 21.8 µM | RXF 393 14 µM | A498 25.5 µM | TK-10 22.5 µM | OVCAR-4 97.1 µM | NCI-H460 67.8 µM | HT-29 > 100 µM | SNB-75 90.8 µM | LOX IMVI 16.5 µM | SK-MEL-2 44.8 µM | SF-295 50.4 µM

CC(=O)OC1C2CCC1C1C2N=NN1c1ccc([N+](=O)[O-])cc1 (centres undefined)
inactive: SW-620 > 100 µM | Malme-3M > 100 µM | HOP-62 > 100 µM | SF-268 > 100 µM | PC-3 > 100 µM | SN12C > 100 µM | HCC 2998 > 100 µM | SK-MEL-28 > 100 µM | U-251 > 100 µM | MOLT-4 > 100 µM | UO-31 > 100 µM | HL-60 > 100 µM | SR 15.7 µM | T47D > 100 µM | NCI/ADR-RES > 100 µM | UACC-62 > 100 µM | DU-145 > 100 µM | COLO 205 > 100 µM | Hs-578T > 100 µM | ACHN > 100 µM | SK-OV-3 > 100 µM | 786-0 > 100 µM | SF-539 > 100 µM | OVCAR-5 > 100 µM | OVCAR-8 > 100 µM | A549 > 100 µM | M14 > 100 µM | NCI-H23 > 100 µM | NCI-H522 64.4 µM | CCRF-CEM > 100 µM | MDA-MB-435 > 100 µM | RPMI-8226 > 100 µM | BT-549 > 100 µM | UACC-257 > 100 µM | EKVX > 100 µM | IGROV-1 > 100 µM | HCT-116 > 100 µM | MCF7 > 100 µM | KM12 > 100 µM | MDA-MB-231 > 100 µM | OVCAR-3 > 100 µM | SK-MEL-5 > 100 µM | NCI-H226 > 100 µM | SNB-19 > 100 µM | HOP-92 > 100 µM | A498 > 100 µM | TK-10 > 100 µM | OVCAR-4 > 100 µM | NCI-H460 > 100 µM | HT-29 > 100 µM | SNB-75 > 100 µM | LOX IMVI > 100 µM | SK-MEL-2 > 100 µM | SF-295 > 100 µM
> 100 µM: HCT-15

CC(=O)O[C@@H]1[C@@H](O)C2=C3[C@]4(C)[C@@H]1C(C)(C)C(=O)C[C@@H]4[C@]3(O)[C@H](OC(C)=O)[C@@]1(C[C@@H]1C)C2=O
15.3 µM: HCT-15
inactive: SW-620 18.3 µM | Malme-3M 13.5 µM | CAKI-1 15.5 µM | SF-268 25.1 µM | PC-3 19.6 µM | SN12C 18.4 µM | HCC 2998 15.4 µM | SK-MEL-28 16.3 µM | U-251 16 µM | MOLT-4 26.6 µM | UO-31 17.5 µM | HL-60 13.6 µM | T47D 16.3 µM | NCI/ADR-RES 23.4 µM | UACC-62 13.7 µM | DU-145 17.3 µM | COLO 205 18.4 µM | Hs-578T 41.2 µM | ACHN 18.9 µM | SK-OV-3 24.2 µM | 786-0 15.6 µM | SF-539 21.3 µM | OVCAR-5 23.7 µM | OVCAR-8 18.5 µM | A549 24.2 µM | M14 25.2 µM | NCI-H23 29.3 µM | NCI-H522 5.18 µM | CCRF-CEM 7.82 µM | MDA-MB-435 16 µM | RPMI-8226 6.7 µM | BT-549 16.1 µM | UACC-257 13.9 µM | EKVX 19.2 µM | IGROV-1 15.4 µM | HCT-116 16.1 µM | MCF7 19 µM | K562 2.71 µM | KM12 16.6 µM | MDA-MB-231 19.7 µM | OVCAR-3 18.5 µM | SK-MEL-5 19.8 µM | SNB-19 21 µM | HOP-92 15.6 µM | A498 23.4 µM | TK-10 14.2 µM | OVCAR-4 19.5 µM | NCI-H460 15.5 µM | SNB-75 21.8 µM | LOX IMVI 14.8 µM | SK-MEL-2 25.6 µM | SF-295 20.7 µM
